Source: US7754754B2, “Pharmaceutical formulations containing substituted 2 heteroarylaminoacetic acid compounds” (Gruenenthal GmbH, priority 2003, dated 2010)

What was measured:
[1] = biological target: T1, glycineB binding site of the NMDA receptor channel (Rattus norvegicus, UniProt P35439); assay: Receptor binding study, displacement of (3H)-MDL 105.519 from rat brain membrane homogenates; conditions: 10 μM of the compound under test, rat cortex and hippocampus membrane homogenate; for inhibition at 10 µM: read-out: % inhibition (percentage fraction of the bound radioactive ligand displaced from its specific binding)
T1 construct: the cortex and hippocampus are dissected out of freshly harvested rat brains and homogenised; from tissue; host or cells: rat (Wistar, male) brain cortex and hippocampus membrane homogenate
Method: (a) Receptor Binding Study (glycineB Binding Site of the NMDA Receptor Channel)
The affinity of the compounds of the above general formula I used according to the invention for the glycine binding site of the NMDA receptor channel is determined using brain membrane homogenates (homogenate of cortex and hippocampus area from the brain of male rats, Wistar strain), as for example described in B. M. Baron, B. W. Siegel, B. L. Harrison, R. S. Gross, C. Hawes and P. Towers, Journal of Pharmacology and Experimental Therapeutics, (1996), vol. 279, page 62. The corresponding literature description is hereby introduced as a reference and is deemed to be part of the disclosure.
To this end, the cortex and hippocampus are dissected out of freshly harvested rat brains and homogenised with ice cooling in 5 mmol/l of TRIS-acetate buffer, […] of sucrose, pH 7.4 (10 ml/g fresh weight) using a Potter homogeniser (Braun/Melsungen, 10 piston strokes at 500 rpm) and then centrifuged for 10 minutes at 1,000 g and 4° C. The first supernatant is collected and the sediment again homogenised with ice cooling with 5 mmol/l of tris-acetate buffer, 0.32 mol/l of sucrose, pH 7.4 (5 ml/g of original fresh weight) with the Potter homogeniser (10 piston strokes at 500 rpm) and centrifuged for 10 minutes at 1,000 g and 4° C. The resultant supernatant is combined with the supernatant from the first centrifugation and centrifuged at 17,000 g for 20 minutes at 4° C. The supernatant after this centrifugation is discarded and the membrane sediment resuspended with 5 mmol/l of TRIS-acetate buffer, pH 8.0 (20 ml/g of original fresh weight) and homogenised with 10 piston strokes at 500 rpm.
The membrane homogenate is then incubated for 1 hour at 4° C. and centrifuged for 30 minutes at 50,000 g and 4° C. The supernatant is discarded and the centrifuge tubes containing the membrane sediment are sealed with Parafilm and frozen for 24 hours at −20° C. On the following day, the membrane sediment is thawed and resuspended with ice-cold 5 mmol/I TRIS-acetate buffer, 0.1% saponin (wt./vol.), pH 7.0 (10 ml/g of original fresh weight) and homogenised with 10 piston strokes at 500 rpm and then centrifuged for 20 minutes at 50,000 g and 4° C. The resultant supernatant is discarded and the sediment resuspended in a small volume with 5 mmol/l of TRIS-acetate buffer, pH 7.0 (approx. 2 ml/g of original fresh weight) and again homogenised with 10 piston strokes at 500 rpm. After determination of the protein content, the membrane homogenate is adjusted with 5 mmol/l TRIS-acetate buffer, pH 7.0, to a protein concentration of 10 mg of protein/ml and frozen in aliquots until used for testing.
The receptor binding test is performed by thawing aliquots, diluting them 1:10 with 5 mmol/l TRIS-acetate buffer, pH 7.0, homogenising them with ice-cooling with 10 piston strokes at 500 rpm with the Potter homogeniser (10 piston strokes at 500 rpm) and centrifuging them for 60 minutes at 55,000 g at 4° C. The supernatant is decanted and the membrane sediment adjusted with ice-cold 50 mmol/l TRIS-acetate buffer, pH 7.0, to a protein concentration of 1 mg/ml and again homogenised with 10 piston strokes at 500 rpm and kept in suspension in an ice bath with stirring on a magnetic stirrer. This membrane homogenate is used in the receptor binding test in a quantity of 100 μl per 1 ml batch (0.1 mg of protein/ml in the final batch). In the binding test, the buffer used is 50 mmol/l TRIS-acetate buffer, pH 7.0, and the radioactive ligand […] of (3H)-MDL 105.519 (B. M. Baron et al. 1996). The level of nonspecific binding is determined in the presence of 1 mmol/l of glycine.
In further batches, the compounds used according to the invention are added in concentration series and the displacement of the radioactive ligand from its specific binding at the glycine-binding site of the NMDA receptor channel is determined. […]

[2] = test system: male albino mice (NMRI); assay: Formaldehyde test (mouse), second (late) phase; assay type: in vivo; conditions: formaldehyde-induced nociception
Method: (b) Formaldehyde Test (Mouse)
The investigations for determining the antinociceptive action of the substituted 2-heteroarylaminoacetic acid compounds of the above general formula I used according to the invention are carried out by the formaldehyde test on male albino mice (NMRI, 25-35 g, Iffa, Credo, Belgium).
In the formaldehyde test, a distinction is drawn between the first (early) phase (0-15 min after formaldehyde injection) and the second (late) phase (15-60 min after formaldehyde injection) (D. Dubuisson et al., Pain, vol. 4, pp. 161-174 (1977)). The early phase, being a direct response to the formaldehyde injection, is considered to be a model of acute pain, while the late phase is considered to be a model of persistent (chronic) pain (T. J. Coderre et al., Pain, vol. 52, pp. 259-285 (1993)). The corresponding literature descriptions are hereby introduced as a reference and are deemed to be part of the disclosure.
The substituted 2-heteroarylaminoacetic acid compounds of the above general formula I used according to the invention are investigated in the second phase of the formaldehyde test in order to obtain information regarding the action of the substances in chronic/inflammatory pain.
A nociceptive reaction is induced in the freely mobile test animals by a single, subcutaneous formaldehyde injection (20 μl, 1% aqueous solution) into the dorsal side of the rear hind paw, the reaction being expressed by distinct licking and biting of the affected paw.
For the investigation period in the second (late) phase of the formaldehyde test, nociceptive behaviour is continuously recorded by observing the animals. […] After injection of the substances which are antinociceptively active in the formaldehyde test, the described behaviours of the animals are reduced or even eliminated. In the same manner as in the substance tests, in which the animals receive an injection of test substance before the formaldehyde, the control animals are injected with vehicle, i.e. solvent (for example 0.9% NaCl solution) before administration of the formaldehyde. The behaviour the animals after administration of the substance (n=10 per substance dose) is compared with a control group (n=10). On the basis of the quantification of the pain behaviour, the action of the substance in the formaldehyde test is determined as a percentage change of the control. ED50 calculations are carried out by regression analysis. The time of administration before the formaldehyde injection was selected as a function of the mode of administration of the compounds used according to the invention (intraperitoneal: 15 min; intravenous: 5 min).

For `O=C(O)C(Nc1cc(Cl)cc(Cl)c1)c1cc2ccccc2s1` (centres unmarked) [Example 2, (Benzo[b]thiophen-2-yl)-(3,5-dichlorophenylamino)acetic acid], the inhibition at 10 µM [1] was 85% and the “Inhibition (%) at dose” value ([2]; at 46.4 mg/kg) was 55% (at 46.4 mg/kg).

For `O=C(O)C(Nc1cc(Cl)cc(Cl)c1)c1csc2ccccc12` (centres unmarked) [Example 3, (Benzo[b]thiophen-3-yl)-(3,5-dichlorophenylamino)acetic acid], the inhibition at 10 µM [1] was 15%.

In the case of `O=C([O-])C(Nc1cc(Cl)cc(Cl)c1)c1cc2ccccc2o1.[Na+]` (centres unmarked) [Example 6, (Benzofuran-2-yl)-(3,5-dichlorophenylamino)acetic acid, sodium salt], the inhibition at 10 µM [1] is reported as 97% and the “Inhibition (%) at dose” value ([2]; at 10 mg/kg) is reported as 42% (at 10 mg/kg).

`O=C([O-])C(Nc1cc(Cl)cc(Cl)c1)c1cc2ccccc2s1.[Na+]` (centres unmarked) [Example 7, (Benzo[b]thiophen-2-yl)-(3,5-dichlorophenylamino)acetic acid, sodium salt] was tested, and the “% inhibition (percentage fraction of the bound radioactive ligand displaced from its specific binding)” value [1] was 85% and the “Inhibition (%) at dose” value ([2]; at 46.4 mg/kg) was 11% (at 46.4 mg/kg).

For `O=C([O-])C(Nc1cc(Cl)cc(Cl)c1)c1csc2ccccc12.[Na+]` (centres unmarked) [Example 8, (Benzo[b]thiophen-3-yl)-(3,5-dichlorophenylamino)acetic acid, sodium salt], the “% inhibition (percentage fraction of the bound radioactive ligand displaced from its specific binding)” value [1] was 24%.

“(Benzo[b]furan-2-yl)-(3,5-bis(trifluoromethyl)phenyl)acetic acid, sodium salt [Example 10]” was tested, and the “% inhibition (percentage fraction of the bound radioactive ligand displaced from its specific binding)” value [1] was 29% and the “Inhibition (%) at dose” value ([2]; at 46.4 mg/kg) was 60% (at 46.4 mg/kg).

“(Benzo[b]thiophen-2-yl)-(3,5-bis(trifluoromethyl)phenyl)acetic acid, sodium salt [Example 9]” was tested, and the “% inhibition (percentage fraction of the bound radioactive ligand displaced from its specific binding)” value [1] was 13%.
